Assay results taken from ChEMBL document CHEMBL3046962, “Synthesis of new olefin chalcone derivatives as antitumor, antioxidant and antimicrobial agents” (Med Chem Res, 2012).

Legend:
[1] = system: Radical scavenging activity; assay: Antioxidant activity assessed as DPPH radical scavenging activity at 1 mM after 20 min by UV-Visible spectrophotometry; type: functional
[2] = Antioxidant activity assessed as ferric reducing activity at 1 mM after 5 min by UV-Visible spectrophotometry; type: functional; set-up: scale not given: the % may be the effect or the level left
[3] = Antioxidant activity assessed as hydroxyl radical scavenging activity at 1 mM after 5 min by UV-Visible spectrophotometry; type: functional
Candida albicans [4] = assay: Antimicrobial activity against Candida albicans MTCC 3017 at 10 ug after 48 hr by agar disk diffusion method; type: functional; conditions: MTCC 3017, 48 h, read-out: DIZ
Staphylococcus aureus [5] = assay: Antimicrobial activity against Staphylococcus aureus MTCC 96 at 20 ug after 24 hr by agar disk diffusion method; type: functional; conditions: MTCC 96, 24 h, read-out: DIZ
Proteus vulgaris [6] = assay: Antimicrobial activity against Proteus vulgaris MTCC 1751 at 20 ug after 24 hr by agar disk diffusion method; type: functional; conditions: MTCC 1751, 24 h, read-out: DIZ
Escherichia coli [7] = assay: Antimicrobial activity against Escherichia coli DH5[alpha] at 20 ug after 24 hr by agar disk diffusion method; type: functional; conditions: read-out: DIZ
[8] = Antioxidant activity assessed as hydroxyl radical scavenging activity at 100 ug after 5 min by UV-Visible spectrophotometry; type: functional
[9] = system: Radical scavenging activity; assay: Antioxidant activity assessed as DPPH radical scavenging activity at 100 ug after 20 min by UV-Visible spectrophotometry; type: functional
[10] = Cytotoxicity against Homo sapiens (human) PN-5C-12 at 100 ug after 72 hr by MTT assay; conditions: in vitro
[11] = Cytotoxicity against Homo sapiens (human) HL60-P58 at 100 ug after 72 hr by MTT assay; type: functional
[12] = Cytotoxicity against Homo sapiens (human) HeLa-B75 at 100 ug after 72 hr by MTT assay; type: functional
[13] = Cytotoxicity against Homo sapiens (human) Hep-3BPN7 at 100 ug after 72 hr by MTT assay; type: functional
Candida albicans [14] = assay: Antimicrobial activity against Candida albicans MTCC 3017 at 100 ug after 48 hr by agar disk diffusion method; type: functional; conditions: MTCC 3017, 48 h, read-out: DIZ
Staphylococcus aureus [15] = assay: Antimicrobial activity against Staphylococcus aureus MTCC 96 at 100 ug after 24 hr by agar disk diffusion method; type: functional; conditions: MTCC 96, 24 h, read-out: DIZ
Proteus vulgaris [16] = assay: Antimicrobial activity against Proteus vulgaris MTCC 1751 at 100 ug after 24 hr by agar disk diffusion method; type: functional; conditions: MTCC 1751, 24 h, read-out: DIZ
Escherichia coli [17] = assay: Antimicrobial activity against Escherichia coli DH5[alpha] at 100 ug after 24 hr by agar disk diffusion method; type: functional; conditions: read-out: DIZ
[18] = Antioxidant activity assessed as ferric reducing activity at 100 ug after 20 min by UV-Visible spectrophotometry; set-up: scale not given: the % may be the effect or the level left

Row | SMILES | Activity [1] [%] | Activity [2] [%] | Activity [3] [%] | zone of inhibition at 10 µg/disc (Candida albicans [4]) [mm] | zone of inhibition at 20 µg/disc (Staphylococcus aureus [5]) [mm] | zone of inhibition at 20 µg/disc (Proteus vulgaris [6]) [mm] | zone of inhibition at 20 µg/disc (Escherichia coli [7]) [mm] | Activity [8] [%] | Activity [9] [%] | Activity [10] [%] | Activity [11] [%] | Activity [12] [%] | Activity [13] [%] | zone of inhibition at 100 µg/disc (Candida albicans [14]) [mm] | zone of inhibition at 100 µg/disc (Staphylococcus aureus [15]) [mm] | zone of inhibition at 100 µg/disc (Proteus vulgaris [16]) [mm] | zone of inhibition at 100 µg/disc (Escherichia coli [17]) [mm] | Activity [18] [%]
1 | O=C1O[C@H]([C@@H](O)CO)C(O)=C1O | 95.8 | 78.2 | 88.3 | – | – | – | – | – | – | – | – | – | – | – | – | – | – | –
2 | OC(Cn1cncn1)(Cn1cncn1)c1ccc(F)cc1F [FLUCONAZOLE] | – | – | – | 6.5 | – | – | – | – | – | – | – | – | – | – | – | – | – | –
3 | CN[C@@H]1[C@H](O[C@H]2[C@H](O[C@H]3[C@H](O)[C@@H](O)[C@H](N=C(N)N)[C@@H](O)[C@@H]3N=C(N)N)O[C@@H](C)[C@]2(O)C=O)O[C@@H](CO)[C@H](O)[C@H]1O [STREPTOMYCIN] | – | – | – | – | 2 | 2.4 | 2.5 | – | – | – | – | – | – | – | – | – | – | –
4 | COc1cc(OC)c(C2=CCN(C)CC2)c(OC)c1/C=C/C(=O)c1cccs1 | – | – | – | – | – | – | – | 36.5 | 22.7 | 67.19 | 54.28 | 84.91 | 79.8 | 1.5 | 2.5 | 6.5 | 1.1 | 59.6
5 | COc1cc(OC)c(C2=CCN(C)CC2)c(OC)c1/C=C/C(=O)c1ccc(C)cc1 | – | – | – | – | – | – | – | 59.8 | 58.5 | 44.26 | 69.49 | 82.23 | 72.53 | 0.1 | 5 | 10.2 | 2.5 | 68.1
6 | COc1cc(OC)c(C2=CCN(C)CC2)c(OC)c1/C=C/C(=O)c1ccc(Cl)c(Cl)c1 | – | – | – | – | – | – | – | 59.8 | 56.9 | 67.19 | 65.04 | 85.93 | 79.8 | 5.5 | 5 | 9.1 | 1.5 | 46.7
7 | COc1cc(OC)c(C2=CCN(C)CC2)c(OC)c1/C=C/C(=O)c1ccc(F)cc1 | – | – | – | – | – | – | – | 38.7 | 22.9 | 69.43 | 62.18 | 85.04 | 79.86 | 3.5 | 2 | 7.5 | 4.5 | 48.3
